Data from US5633016A, “Combination chemotherapy” (SmithKline Beecham Corporation, priority 1995, dated 1997).
Where two headings read alike, the source gives them in different places.

Experiments:
[1] = test system: esophageal cancer; settings: humans, sole chemotherapeutic agent; cited from earlier work
[2] = test system: DNA topoisomerase I; settings: background statement; cited from earlier work
[3] = format: physicochemical; settings: hang-bag, 24 hours
Method: Topotecan diluted in saline (10 ug/ml or 500 ug/ml) or dextrose (6.7 ug/ml or 330 ug/ml) is stable in a hang-bag for 24 hours with at least 95% recovery.

[4] = in words; cited from earlier work
[5] = format: physicochemical; settings: plastic bags, room temperature
Method: Stability - Shelf life surveillance of the intact vials is ongoing. Because the single-use lyophilized dosage form contains no antibacterial preservatives, it is advised that the reconstituted solution be discarded eight hours after initial entry into the vial. Further dilutions of the reconstituted solution to concentrations of 0.02 mg/ml and 0.1 mg. ml in 5% Dextrose Injection, USP, ("D5W") or 0.9% Sodium Chloride Injection, USP, ("NS") in plastic bags stored at room temperature yielded the following stability results:
Percentage of Initial Topotecan Remaining in Solution

[6] = test system: non-small cell lung carcinoma; settings: humans, sole chemotherapeutic agent; cited from earlier work
[7] = test system: ovarian cancer; settings: humans, sole chemotherapeutic agent; cited from earlier work

CC[C@@]1(O)C(=O)OCc2c1cc1n(c2=O)Cc2cc3c(CN(C)C)c(O)ccc3nc2-1 [Topotecan, (S)-10[(dimethylamino)methyl]-4-ethyl-4,9-dihydroxy-IH-pyrano[3',4':6,7]indolizino[1,2-b]quinolone-3,14(4H,12H)-dione]
clinical efficacy [1]: shown clinical efficacy | inhibition of DNA topoisomerase I [2]: specific inhibitor of DNA topoisomerase I | recovery ([3]; dextrose (6.7 ug/ml or 330 ug/ml)): at least 95% | recovery ([3]; saline (10 ug/ml or 500 ug/ml)): at least 95% | water solubility [4]: water-soluble | Percentage of Initial Topotecan Remaining in Solution ([5]; D5W (5% Dextrose Injection, USP), 0.02 mg/ml, 0 hrs): 100.00 Percentage | Percentage of Initial Topotecan Remaining in Solution ([5]; D5W (5% Dextrose Injection, USP), 0.1 mg/ml, 0 hrs): 100.00 Percentage | Percentage of Initial Topotecan Remaining in Solution ([5]; NS (0.9% Sodium Chloride Injection, USP), 0.02 mg/ml, 0 hrs): 100.00 Percentage | Percentage of Initial Topotecan Remaining in Solution ([5]; NS (0.9% Sodium Chloride Injection, USP), 0.1 mg/ml, 0 hrs): 100.00 Percentage | Percentage of Initial Topotecan Remaining in Solution ([5]; NS (0.9% Sodium Chloride Injection, USP), 0.1 mg/ml, 6 hrs): 97.71 Percentage | Percentage of Initial Topotecan Remaining in Solution ([5]; NS (0.9% Sodium Chloride Injection, USP), 0.1 mg/ml, 24 hrs): 98.30 Percentage | Percentage of Initial Topotecan Remaining in Solution ([5]; NS (0.9% Sodium Chloride Injection, USP), 0.1 mg/ml, 48 hrs): 98.35 Percentage | clinical efficacy [6]: shown clinical efficacy | clinical efficacy [7]: shown clinical efficacy
